Data taken from article PMC7226860 (ACS Omega, 2020).
Values after ≈ are worked out from the molar mass of the structure shown.

Columns and labels:
[1] = system: S. aureus (ATCC: 6538); experiment: Agar well diffusion, inhibition zone; type: cell-based, Staphylococcus aureus; details: for zone of inhibition at 15000 µg/mL: Staphylococcus aureus, read-out: diameter of the inhibition zone; for diameter of the inhibition zone: S. aureus (ATCC: 6538), Gram (+ve), agar well diffusion, 15 mg/mL, mean ± SD
[2] = system: S. mutans (ATCC: 25175); experiment: Agar well diffusion, inhibition zone; type: cell-based, Streptococcus mutans; details: for zone of inhibition at 15000 µg/mL: Streptococcus mutans, read-out: diameter of the inhibition zone; for diameter of the inhibition zone: S. mutans (ATCC: 25175), Gram (+ve), agar well diffusion, 15 mg/mL, mean ± SD
[3] = system: S. aureus (ATCC: 6538); experiment: MIC, twofold serial dilution; type: cell-based; details: Staphylococcus aureus, 24 h
[4] = system: S. mutans (ATCC: 25175); experiment: MIC, twofold serial dilution; type: cell-based; details: Streptococcus mutans, 24 h
[5] = system: E. coli (ATCC: 3008); experiment: Agar well diffusion, inhibition zone; type: cell-based, Escherichia coli; details: for diameter of the inhibition zone: E. coli (ATCC: 3008), Gram (−ve), agar well diffusion, 15 mg/mL, mean ± SD; for zone of inhibition at 15000 µg/mL: Escherichia coli, read-out: diameter of the inhibition zone
[6] = system: K. pneumonia (ATCC: 4415); experiment: Agar well diffusion, inhibition zone; type: cell-based, Klebsiella pneumonia; details: for zone of inhibition at 15000 µg/mL: Klebsiella pneumoniae, read-out: diameter of the inhibition zone, K. pneumonia (ATCC: 4415), Gram (−ve), 15 mg/mL, mean ± SD; for diameter of the inhibition zone: K. pneumonia (ATCC: 4415), Gram (−ve), 15 mg/mL, mean ± SD
[7] = system: P. aeruginosa (ATCC: 27853); experiment: Agar well diffusion, inhibition zone; type: cell-based, Pseudomonas aeruginosa; details: P. aeruginosa (ATCC: 27853), Gram (−ve); agar well diffusion, 15 mg/mL; mean ± SD
[8] = system: C. albicans (ATCC: 10231); experiment: Agar well diffusion, inhibition zone; type: cell-based, Candida albicans; details: for diameter of the inhibition zone: C. albicans (ATCC: 10231), fungi, 15 mg/mL, mean ± SD
[9] = system: E. coli (ATCC: 3008); experiment: MIC, twofold serial dilution; type: cell-based; details: Escherichia coli, 24 h
[10] = system: HFB4 human dermal fibroblast cell line; experiment: MTT cytotoxicity assay; type: cell-based; details: 48 h
[11] = target: T1, human DHFR (Homo sapiens, UniProt P00374); experiment: DHFR inhibitor screening kit; type: biochemical
T1 sequence (P00374 1-187): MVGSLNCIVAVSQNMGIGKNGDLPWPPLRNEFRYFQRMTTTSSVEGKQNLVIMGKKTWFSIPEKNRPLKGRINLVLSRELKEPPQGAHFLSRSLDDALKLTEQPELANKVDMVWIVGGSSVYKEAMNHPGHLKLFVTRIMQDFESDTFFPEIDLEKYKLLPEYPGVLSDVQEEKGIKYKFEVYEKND

[12] = read-out: Inhibition of DHFR enzyme

For `CC1(C)S[C@@H]2[C@H](NC(=O)[C@H](N)c3ccccc3)C(=O)N2[C@H]1C(=O)O` [Ampicillin, reference compound], the zone of inhibition at 15000 µg/mL [1] was 32 ± 0.5 mm, the zone of inhibition at 15000 µg/mL [2] was 22 ± 0.5 mm and the MIC [3] was 62.5 µg/mL (≈ 179 µM). The MIC [4] was 62.5 µg/mL (≈ 179 µM).

With `O=C(Cc1nc2ccccc2s1)NNS(=O)(=O)c1ccccc1` [compound 3a, N′-(2-(Benzo[d]thiazol-2-yl)acetyl)benzenesulfonohydrazide] the “diameter of the inhibition zone” value [5] was “− ^a”, the zone of inhibition at 15000 µg/mL [6] was 20 ± 3 mm and the “diameter of the inhibition zone” value [7] was “−”. For the same compound, the “diameter of the inhibition zone” value [1] was “−”, the “diameter of the inhibition zone” value [2] was “−” and the “diameter of the inhibition zone” value [8] was “−”.

`Cc1ccc(S(=O)(=O)NNC(=O)Cc2nc3ccccc3s2)cc1` [compound 3b, N′-(2-(Benzo[d]thiazol-2-yl)acetyl)-4-methylbenzenesulfonohydrazide] was tested, and the zone of inhibition at 15000 µg/mL [5] was 17.3 ± 2.5 mm, the zone of inhibition at 15000 µg/mL [6] was 32 ± 2 mm and the “diameter of the inhibition zone” value [7] was “−”. The zone of inhibition at 15000 µg/mL [1] was 17.6 ± 2.5 mm, the zone of inhibition at 15000 µg/mL [2] was 10.6 ± 0.5 mm and the “diameter of the inhibition zone” value [8] was “−”. It also gave an MIC [9] of 250 µg/mL (≈ 692 µM), an MIC [3] of 1000 µg/mL (≈ 2770 µM) and an MIC [4] of 1000 µg/mL (≈ 2770 µM). For the same compound, the IC50 [10] was 165 ± 3.04 µg/mL (≈ 456 µM), the IC50 [11] was 1.02 µM and the inhibition at 0.01 µg/mL [11, 12] was 17.9%. The inhibition at 0.1 µg/mL [11, 12] was 33.4%, the inhibition at 1 µg/mL [11, 12] was 60.9% and the inhibition at 10 µg/mL [11, 12] was 81.5%.

With `CSc1c(C#N)c(O)n(NS(=O)(=O)c2ccccc2)c(=O)c1-c1nc2ccccc2s1` [compound 5c, N-(3-(Benzo[d]thiazol-2-yl)-5-cyano-6-hydroxy-4-(methylthio)-2-oxopyridin-1(2H)-yl)benzenesulfonamide] the zone of inhibition at 15000 µg/mL [5] was 23.3 ± 1.5 mm, the zone of inhibition at 15000 µg/mL [6] was 27.3 ± 1.5 mm and the “diameter of the inhibition zone” value [7] was “−”. The zone of inhibition at 15000 µg/mL [1] was 17.6 ± 1.5 mm, the “diameter of the inhibition zone” value [2] was “−” and the “diameter of the inhibition zone” value [8] was “−”.

With `CSc1c(C#N)c(O)n(NS(=O)(=O)c2ccc(C)cc2)c(=O)c1-c1nc2ccccc2s1` [compound 5d, N-(3-(Benzo[d]thiazol-2-yl)-5-cyano-6-hydroxy-4-(methylthio)-2-oxopyridin-1(2H)-yl)-4-methylbenzenesulfonamide] the “diameter of the inhibition zone” value [5] was “−”, the zone of inhibition at 15000 µg/mL [6] was 18.2 ± 0.5 mm and the “diameter of the inhibition zone” value [7] was “−”. The zone of inhibition at 15000 µg/mL [1] was 17.5 ± 2 mm, the “diameter of the inhibition zone” value [2] was “−” and the “diameter of the inhibition zone” value [8] was “−”.

With `CSc1c(C(=O)Nc2ccccc2)c(N)n(NS(=O)(=O)c2ccccc2)c(=O)c1-c1nc2ccccc2s1` [compound 9a, 2-Amino-5-(benzo[d]thiazol-2-yl)-4-(methylthio)-6-oxo-N-phenyl-1-(phenylsulfonamido)-1,6-dihydropyridine-3-carboxamide] the “diameter of the inhibition zone” value [5] was “−”, the “diameter of the inhibition zone” value [6] was “−” and the “diameter of the inhibition zone” value [7] was “−”. The “diameter of the inhibition zone” value [1] was 31 ± 1.0 mm, the zone of inhibition at 15000 µg/mL [1] was 31 ± 1 mm and the “diameter of the inhibition zone” value [2] was “−”. The “diameter of the inhibition zone” value [8] was “−”.

With `CSc1c(C(=O)Nc2ccccc2)c(N)n(NS(=O)(=O)c2ccc(C)cc2)c(=O)c1-c1nc2ccccc2s1` [compound 9b, 2-Amino-5-(benzo[d]thiazol-2-yl)-1-(4-methylphenylsulfonamido)-4-(methylthio)-6-oxo-N-phenyl-1,6-dihydropyridine-3-carboxamide] the “diameter of the inhibition zone” value [5] was “−”, the “diameter of the inhibition zone” value [6] was “−” and the “diameter of the inhibition zone” value [7] was “−”. The zone of inhibition at 15000 µg/mL [1] was 27.1 ± 0.2 mm, the “diameter of the inhibition zone” value [2] was “−” and the “diameter of the inhibition zone” value [8] was “−”.

In the case of `CSc1c(C(=O)Nc2ccc(C)cc2)c(N)n(NS(=O)(=O)c2ccccc2)c(=O)c1-c1nc2ccccc2s1` [compound 9c, 2-Amino-5-(benzo[d]thiazol-2-yl)-4-(methylthio)-6-oxo-1-(phenylsulfonamido)-N-(p-tolyl)-1,6-dihydropyridine-3-carboxamide], the zone of inhibition at 15000 µg/mL [5] is reported as 14.8 ± 0.2 mm, the “diameter of the inhibition zone” value [6] is reported as 29.2 ± 0.3 mm and the zone of inhibition at 15000 µg/mL [6] is reported as 29 mm. The “diameter of the inhibition zone” value [7] was “−”, the “diameter of the inhibition zone” value [1] was “−” and the zone of inhibition at 15000 µg/mL [2] was 20.2 ± 1 mm. For the same compound, the “diameter of the inhibition zone” value [8] was “−”.

With `CSc1c(C(=O)Nc2ccc(C)cc2)c(N)n(NS(=O)(=O)c2ccc(C)cc2)c(=O)c1-c1nc2ccccc2s1` [compound 9d, 2-Amino-5-(benzo[d]thiazol-2-yl)-1-(4-methylphenylsulfonamido)-4-(methylthio)-6-oxo-N-(p-tolyl)-1,6-dihydropyridine-3-carboxamide] the “diameter of the inhibition zone” value [5] was “−”, the “diameter of the inhibition zone” value [6] was “−” and the “diameter of the inhibition zone” value [7] was “−”. For the same compound, the zone of inhibition at 15000 µg/mL [1] was 26.8 ± 1.5 mm, the zone of inhibition at 15000 µg/mL [2] was 8.8 ± 1 mm and the “diameter of the inhibition zone” value [8] was 28.0 ± 0.7 mm. It also gave a zone of inhibition at 15000 µg/mL ([8]; Candida albicans, read-out: diameter of the inhibition zone, C. albicans (ATCC: 10231), fungi, 15 mg/mL, mean ± SD) of 21 to 28 mm.

With `COc1ccc(NC(=O)c2c(SC)c(-c3nc4ccccc4s3)c(=O)n(NS(=O)(=O)c3ccccc3)c2N)cc1` [compound 9e, 2-Amino-5-(benzo[d]thiazol-2-yl)-N-(4-methoxyphenyl)-4-(methylthio)-6-oxo-1-(phenylsulfonamido)-1,6-dihydropyridine-3-carboxamide] the “diameter of the inhibition zone” value [5] was “−”, the “diameter of the inhibition zone” value [6] was “no activity and −” and the “diameter of the inhibition zone” value [7] was “−”. The zone of inhibition at 15000 µg/mL [1] was 19.6 ± 1 mm, the “diameter of the inhibition zone” value [2] was “−” and the “diameter of the inhibition zone” value [8] was “−”.

In the case of `COc1ccc(NC(=O)c2c(SC)c(-c3nc4ccccc4s3)c(=O)n(NS(=O)(=O)c3ccc(C)cc3)c2N)cc1` [compound 9f, 2-Amino-5-(benzo[d]thiazol-2-yl)-N-(4-methoxyphenyl)-1-(4-methylphenylsulfonamido)-4-(methylthio)-6-oxo-1,6-dihydropyridine-3-carboxamide], the “diameter of the inhibition zone” value [5] is reported as “−”, the “diameter of the inhibition zone” value [6] is reported as 29.6 ± 1.5 mm and the zone of inhibition at 15000 µg/mL [6] is reported as 29 mm. For the same compound, the “diameter of the inhibition zone” value [7] was “−”, the “diameter of the inhibition zone” value [1] was “−” and the “diameter of the inhibition zone” value [2] was “−”. For the same compound, the “diameter of the inhibition zone” value [8] was “−”.
